Assay [1] has as its system NALM-6 cells. The assay is described as follows: Gene expression profiling (Affymetrix U133 Plus 2.0), NALM-6. The assay is classed as cell-based, human. As to conditions: NALM-6, 500 nM GSK126, 72 hours. The protocol:
(§1) FIG. 6. Activation of gene expression in A687V EZH2, but not WT EZH2, cells. A, Gene expression profiling of SUP-B8 and NALM-6 cells treated for 72 hours with 0.1% DMSO or 500 nM GSK126. […] Green, lower expression. Red, higher expression.
(§2) SUP-B8 and NALM-6 cells (2×10^5/well) were seeded into six-well tissue culture plates 24 hours before treatment with 0.1% DMSO or 500 nM GSK126 for 72 hours. Cells were collected into Trizol reagent (Invitrogen) and total RNA was isolated via phenol:chloroform extraction and the RNeasy kit (Qiagen) according to the manufacturer's instructions. Total RNA was labeled and hybridized to Affymetrix Human Genome U133 Plus 2.0 oligonucleotide microarrays arrays according to the manufacturer's instructions (Affymetrix, Santa Clara, Calif., USA). CEL files were processed and differentially expressed probe sets were determined as described previously (McCabe et al., 2012b). Briefly, significant probe sets were identified after filtering for detection, an average fold-change >2 or <-2, and p-values adjusted for multiple testing correction by FDR (Benjamini Hochberg)<0.1.

The subject of assay [2] is EZH2 WT cell lines (B cell ALL panel). The assay is described as follows: 6-day cell proliferation assay (CellTiter-Glo), EZH2 WT B cell ALL cell lines. Type of assay: cell-based. The conditions noted are these: Homo sapiens, 144 h, 6 days, range over cell lines, read-out: growth IC50 values. The protocol:
(§3) FIG. 4. A687V EZH2 mutant ALL is highly dependent on EZH2 activity. A, Sensitivity of ALL cell lines to EZH2 inhibition with GSK126. Cells were treated with a 20-point 2-fold dilution series of GSK126 (range 36 μM-70 pM) for 6 days and cell growth was measured using Cell Titer-Glo (Promega). Data are represented as the concentration of GSK126 required to inhibit 50% of growth (growth IC50). B, Western blot analysis of H3K27me3, H3K27me2, H3K27me1, and total histone H3 following treatment of NALM-6 or SUP-B8 cell lines with varying concentrations of GSK126 for 72 hours.
(§4) Cells were evaluated for sensitivity to GSK126 in a 6-day proliferation assay as described previously (McCabe et al., 2012b). Briefly, cells were seeded into 384 well plates at a density that permitted proliferation for 6 days. Cells were then treated in duplicate with a 20-point 2-fold dilution series of GSK126 or 0.147% DMSO. After incubation with compound for 6 days, cell proliferation was evaluated using CellTiter-Glo (Promega) according to the manufacturer's specifications. Data were fit with a 4-parameter equation to generate a concentration response curve and to determine the concentration of GSK126 required to inhibit 50% of growth (gIC50).
(ATP-based viability assays read luminescence as a measure of living cells.)

Assay [3] has as its system A687V EZH2 mutant SUP-B8 cell line. The assay is described as follows: 6-day cell proliferation assay (CellTiter-Glo), SUP-B8. The assay is classed as cell-based, human. The protocol:
as §3
(§5) FIG. 5. […] Temporal kinetics of GSK126-induced growth inhibition (A and C) and caspase 3/7 activation (B and D) in NALM-6 (A and B) and SUP-B8 (C and D) over a 6 day time course using Cell Titer-Glo or Caspase-Glo 3/7 (Promega), respectively.
The SUP-B8 acute lymphoblastic leukemia cell line which harbors a heterozygous A687V EZH2 mutation was kindly provided by Dr. Ronald Levy (Stanford University) and was maintained in RPMI-1640 media (MediaTech) supplemented with 10% fetal bovine serum (FBS) (Sigma-Aldrich). All other cell lines were obtained from either ATCC or DSMZ and maintained in the recommended cell culture media.
as §4

For assay [4], the system named is NALM-6 cells. The assay is described as follows: Caspase 3/7 assay (Caspase-Glo 3/7), NALM-6. Type of assay: cell-based, human. The conditions noted are these: NALM-6 (EZH2 WT), out to 6 days.
Source text: as §5
(§6) For detection of caspase-3/7 activity, Caspase-Glo 3/7 (Promega) was utilized according to the manufacturer's directions. Values were normalized to CellTiter Glo (Promega) levels at each time point and expressed as a percentage of vehicle treated control.

Assay [5] deals with NALM-6 cells. Kind of assay: Growth inhibition time course (CellTiter-Glo), NALM-6. The assay is classed as cell-based, human. The conditions noted are these: NALM-6 (EZH2 WT), out to 6 days. The protocol: as §5, §4
Assay [6] has as its system SUP-B8 cells. Kind of assay: Caspase 3/7 assay (Caspase-Glo 3/7), SUP-B8. Type of assay: cell-based, human. The conditions noted are these: SUP-B8, beginning on day 5.
Source text: as §5, §6

The test system of assay [7] is Y641 and A677 EZH2 mutant DLBCL cell lines. As to conditions: many Y641 and A677 EZH2 mutant DLBCL cell lines; previously shown; cited from earlier work.
The subject of assay [8] is H3K27me3 in SUP-B8 cells. The assay is described as follows: Western blot analysis of H3K27 methylation after GSK126 treatment. The assay is classed as cell-based, human. The conditions noted are these: SUP-B8 compared with the most sensitive EZH2 WT cell line NALM-6, 72 hours. The method, then: as §3
Cell lysate preparation and western blotting were performed as previously described (McCabe et al., 2012a). Antibodies utilized included: EZH2 (BD Transduction Labs), histone H3 (Abcam), H3K27me1 (ActiveMotif), H3K27me2 (Cell Signaling Technology), H3K27me3 (Cell Signaling Technology), EED (Santa Cruz), SUZ12 (Cell Signaling Technology), or Actin (Sigma). Histone methylation antibody specificity was previously confirmed using full-length recombinant methylated histones harboring mono-, di-, or tri-methylation at H3K4, H3K9, H3K27, H3K36, and H3K79 (McCabe et al., 2012a).
Background: A western blot detects proteins with antibodies after separation by electrophoresis.

Assay [9] relates to SUP-B8 cells. The assay is described as follows: Gene expression profiling (Affymetrix U133 Plus 2.0), SUP-B8. The assay is classed as cell-based, human. The conditions noted are these: SUP-B8, 500 nM GSK126, 72 hours. The method, then:
as §1, §2

The values below come from US20160361309A1, “METHODS OF TREATING CANCER PATIENTS RESPONDING TO EZH2 INHIBITOR GSK126” (GLAXOSMITHKLINE INTELLECTUAL PROPERTY (NO.2) LIMITED, priority 2014, published 2016).

For `CC[C@H](C)n1cc(C)c2c(C(=O)NCc3c(C)cc(C)[nH]c3=O)cc(-c3ccc(N4CCNCC4)nc3)cc21` [GSK126], the down-regulated probes in [1] was found to be 10. Moreover, the figures for the up-regulated probes in [1] and in assay [9] were 35 and 643, respectively. Moreover, the IC50 in assay [2] is 2500 to 7800 nM; in assay [3] (Homo sapiens, 144 h, SUP-B8 (heterozygous A687V EZH2), 6 days, CellTiter-Glo, read-out: dose required to inhibit 50% of cell proliferation (growth IC50)) it was 441 nM. In addition, the “growth inhibition over 6 day time course” value was “dose-dependent growth inhibition” in assay [3] (SUP-B8, after 4 days of treatment, maximal on day 6) and “little growth inhibition” in assay [5]. In [3] (SUP-B8, day 6), the “doses at which cell number losses were evident” value is given as “above 100 nM”. Also, the “activation of caspases 3 or 7” value in assay [4] is “no activation of caspases 3 or 7”. Also, in [6], the “caspase 3/7 activity” value is given as “increased in a dose-dependent fashion”. In addition, the inhibition of proliferation entry in [7] is listed as “effectively inhibit the proliferation”. The “demethylation of H3K27me3” value in assay [8] was “comparable, or slightly reduced, demethylation of H3K27me3”.
